Read-outs that look alike come from different tables or passages of the source. Values belong to the compound of their own block, whether it stands above or below them.
Experiments:
[1] = test system: LNCaP xenografts; test: Ex vivo biodistribution and blocking studies in mice bearing LNCaP xenografts; conditions: for tumor uptake: LNCaP tumor
Description: (§1) Imaging and biodistribution experiments were performed using NODSCID IL2RγKO male mice. All experiments were conducted according to the guidelines established by the Canadian Council on Animal Care and approved by the Animal Ethics Committee of the University of British Columbia. Mice were anesthetized by inhalation with 2% isoflurane in oxygen and implanted subcutaneously with 1 × 10^7 LNCaP cells behind the left shoulder. The mice were imaged or used in biodistribution studies once the tumor reached 5–8 mm in diameter (5–6 wk).
For biodistribution and blocking studies, the mice were injected with 1–3 MBq of radiotracer. At 60 min, the mice were anesthetized with 2% isoflurane inhalation and euthanized by CO2 inhalation. Blood was withdrawn by cardiac puncture, and the organs and tissues of interest were collected, weighed, and counted using an automatic γ-counter (PerkinElmer). Uptake values were expressed as the percentage of the injected dose per gram of tissue (%ID/g).
A standard 1-way ANOVA was performed to determine whether statistically significant differences in tumor uptake occurred between radiotracers. Each radiotracer was compared with ^18F-DCFPyL using the Dunnett test (a many-to-one t test comparison). This analysis was also performed for kidney and blood activity and for tumor-to-blood and tumor-to-muscle ratios. Reported P values were adjusted for multiple comparisons. The analysis was performed using Prism 8 (GraphPad). […]
Statistical analyses were performed using GradPad prism 7. Multiple t tests were performed to compare biodistribution in unblocked and blocked mice, multiple comparisons were corrected using the Holm-Sidak method. The difference was considered statistically significant when p value was < 0.05.
Supplemental Table 1 – Complete biodistribution study for compounds [18F]1–3 […]
Tissue 1h 1h blocked 1h 1h blocked 1h 1h blocked
(%ID/g) n = 8 n = 4 n = 6 n = 4 n = 8 n = 5 […]
(1 picture or pasted object on this page, not shown here)

[2] = Distribution coefficient (LogD7.4), shake flask method; type: physicochemical; conditions: n-octanol / phosphate buffer 0.1 M pH 7.4; n = 3
Description: LogD7.4 values were measured using the shake flask method. Briefly, an aliquot of ^18F-labeled tracer was added to a vial containing 2.5 mL of n-octanol and 2.5 mL of phosphate buffer (0.1 M, pH 7.4). The mixture was vortexed for 2 min and then centrifuged at 3,000g for 10 min. A sample of the n-octanol (0.1 mL) and buffer (0.1 mL) layers was counted using a γ-counter. Values of LogD7.4 were calculated using the following equation: LogD7.4 = log10 [(counts in n-octanol phase)/(counts in buffer phase)].

[3] = target: T1, PSMA (Homo sapiens, UniProt Q04609); test: In vitro competition binding assay on LNCaP cells with ^18F-DCFPyL as radioligand
T1 construct: because it expresses PSMA endogenously and is commonly used to evaluate PSMA-targeting radiotracers; endogenous in cells; host or cells: LNCaP cells
Description: LNCaP cells were plated onto a 24-well poly-D-lysine coated plate for 48 h (400,000/well). […] Nonspecific binding was determined in the presence of 10 μM unlabeled DCFPyL. The assay mixtures were incubated for 1 h at 37°C with gentle agitation followed by 2 washes with cold HEPES buffered saline. A trypsin solution (0.25%, 400 μL) was then added to each well to harvest the cells. Radioactivity was measured by γ-counting, and Ki values were calculated using the “1 site—fit Ki” built-in model in Prism 7 (GraphPad).

[4] = test system: LNCaP xenografts; test: PET/CT imaging of LNCaP tumor-bearing mice; type: in vivo; conditions: 1 h after injection
Description: as §1
PET imaging experiments were conducted using an Inveon preclinical PET/CT scanner (Siemens). Compounds ^18F-1,2,3,5,7, and 8 were formulated in 10% ethanol/normal saline, whereas ^18F-4 and 6 were formulated in 10% ethanol/phosphate-buffered saline. […] For blocking controls, the mice were coinjected with DCFPyL (0.5 mg). After injection, the mice were allowed to recover and roam freely in their cage. After 50 min, the mice were sedated by 2% isoflurane inhalation and positioned in the scanner. A CT scan was performed first for localization and attenuation correction. This was followed by a 10-min static PET scan. The mice were kept warm by a heating pad during image acquisition. […]

[5] = 1 h after injection, 1-way ANOVA, Dunnett test
[6] = 1 h blocked (coinjection of DCFPyL 0.5 mg)

T1 sequence (Q04609 whole entry): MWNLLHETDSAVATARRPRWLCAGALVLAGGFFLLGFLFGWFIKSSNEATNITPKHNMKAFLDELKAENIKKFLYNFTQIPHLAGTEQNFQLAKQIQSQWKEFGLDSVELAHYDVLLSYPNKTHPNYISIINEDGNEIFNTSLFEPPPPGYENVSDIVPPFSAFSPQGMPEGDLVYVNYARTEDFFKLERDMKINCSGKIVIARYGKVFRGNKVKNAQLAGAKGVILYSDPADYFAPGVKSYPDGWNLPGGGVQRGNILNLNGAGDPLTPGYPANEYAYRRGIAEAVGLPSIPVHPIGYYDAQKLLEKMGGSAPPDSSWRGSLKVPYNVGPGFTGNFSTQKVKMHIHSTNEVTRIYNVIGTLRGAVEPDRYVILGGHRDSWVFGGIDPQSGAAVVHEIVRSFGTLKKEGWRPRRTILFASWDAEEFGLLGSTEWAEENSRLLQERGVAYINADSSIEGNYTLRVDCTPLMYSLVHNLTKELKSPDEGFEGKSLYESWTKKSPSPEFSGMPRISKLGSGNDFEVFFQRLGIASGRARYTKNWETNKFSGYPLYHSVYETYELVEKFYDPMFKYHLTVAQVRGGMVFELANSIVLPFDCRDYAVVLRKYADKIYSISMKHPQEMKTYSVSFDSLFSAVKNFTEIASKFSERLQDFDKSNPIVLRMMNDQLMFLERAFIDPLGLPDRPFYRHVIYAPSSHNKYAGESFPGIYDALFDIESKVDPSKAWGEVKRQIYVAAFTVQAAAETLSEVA

- T/B (tumor-to-blood ratio) ([1]; 1 h after injection, unblocked): 54.57 ± 38.49
- T/K (tumor-to-kidney ratio) ([1]; 1 h after injection, unblocked): 0.28 ± 0.22
- T/M (tumor-to-muscle ratio) ([1]; 1 h after injection, unblocked): 117.13 ± 52.06
- adrenal uptake ([1]; 1 h after injection, unblocked): 0.81 ± 0.25 %ID/g
- blood uptake ([1]; 1 h after injection, unblocked): 0.13 ± 0.08 %ID/g
- bone uptake ([1]; 1 h after injection, unblocked): 0.10 ± 0.07 %ID/g
- brain uptake ([1]; 1 h after injection, unblocked): 0.01 ± 0.01 %ID/g
- fat uptake ([1]; 1 h after injection, unblocked): 0.27 ± 0.14 %ID/g
- heart uptake ([1]; 1 h after injection, unblocked): 0.07 ± 0.02 %ID/g
- intestine uptake ([1]; 1 h after injection, unblocked): 22.24 ± 2.79 %ID/g
- kidney uptake ([1]; 1 h after injection, unblocked): 20.35 ± 9.85 %ID/g
- liver uptake ([1]; 1 h after injection, unblocked): 0.83 ± 0.34 %ID/g
- lung uptake ([1]; 1 h after injection, unblocked): 0.40 ± 0.13 %ID/g
- muscle uptake ([1]; 1 h after injection, unblocked): 0.05 ± 0.01 %ID/g
- pancreas uptake ([1]; 1 h after injection, unblocked): 0.13 ± 0.11 %ID/g
- spleen uptake ([1]; 1 h after injection, unblocked): 0.75 ± 0.36 %ID/g
- stomach uptake ([1]; 1 h after injection, unblocked): 0.21 ± 0.12 %ID/g
- testes uptake ([1]; 1 h after injection, unblocked): 0.18 ± 0.05 %ID/g
- kidney accumulation compared with ^18F-DCFPyL [1, 5]: lower kidney accumulation
- tumor uptake compared with ^18F-DCFPyL [1, 5]: lower tumor uptake than ^18F-DCFPyL
- tumor-to-blood and tumor-to-muscle ratios compared with ^18F-DCFPyL [1, 5]: higher ratios
- T/B (tumor-to-blood ratio) [1, 6]: 1.56 ± 0.87
- T/K (tumor-to-kidney ratio) [1, 6]: 0.28 ± 0.12
- T/M (tumor-to-muscle ratio) [1, 6]: 3.62 ± 3.62
- adrenal uptake [1, 6]: 0.06 ± 0.09 %ID/g
- blood uptake [1, 6]: 0.85 ± 1.37 %ID/g
- bone uptake [1, 6]: 0.16 ± 0.25 %ID/g
- brain uptake [1, 6]: 0.01 ± 0.01 %ID/g
- fat uptake [1, 6]: 0.02 ± 0.02 %ID/g
- heart uptake [1, 6]: 0.04 ± 0.01 %ID/g
- intestine uptake [1, 6]: 26.68 ± 9.98 %ID/g
- kidney uptake [1, 6]: 0.56 ± 0.18 %ID/g
- liver uptake [1, 6]: 0.73 ± 0.21 %ID/g
- lung uptake [1, 6]: 0.12 ± 0.04 %ID/g
- muscle uptake [1, 6]: 0.24 ± 0.37 %ID/g
- pancreas uptake [1, 6]: 0.06 ± 0.06 %ID/g
- spleen uptake [1, 6]: 0.15 ± 0.16 %ID/g
- stomach uptake [1, 6]: 1.55 ± 2.10 %ID/g
- testes uptake [1, 6]: 0.04 ± 0.01 %ID/g
- tumor uptake ([1]; 1 h after injection, unblocked, listed as 7): 5.1 ± 1.1 %ID/g
- tumor uptake ([1]; 1 h after injection, unblocked, listed as [18F]7): 5.09 ± 1.10 %ID/g
- tumor uptake [1, 6]: 0.15 ± 0.06 %ID/g
- logD at 2 min [2]: -3.24 ± 0.03
- Ki [3]: 16.5 ± 5.5 nM
Compound: C[N+](C)(Cc1cn(CC(=O)NCCOCCOCCC(=O)N[C@@H](Cc2ccc3ccccc3c2)C(=O)NCCCC[C@H](NC(=O)N[C@@H](CCC(=O)O)C(=O)O)C(=O)O)nn1)C[B-](F)(F)F [^18F-7]

Compound: C[N+](C)(Cc1cn(CC(=O)N[C@@H](CCC(=O)O)C(=O)NCCCC[C@H](NC(=O)[C@H](CCC(=O)O)NC(=O)Cn2cc(C[N+](C)(C)C[B-](F)(F)F)nn2)C(=O)NC[C@H]2CC[C@H](C(=O)N[C@@H](Cc3ccc4ccccc4c3)C(=O)NCCCC[C@H](NC(=O)N[C@@H](CCC(=O)O)C(=O)O)C(=O)O)CC2)nn1)C[B-](F)(F)F [^18F-8]
- T/B (tumor-to-blood ratio) ([1]; 1 h after injection, unblocked): 30.95 ± 7.76
- T/K (tumor-to-kidney ratio) ([1]; 1 h after injection, unblocked): 0.14 ± 0.07
- T/M (tumor-to-muscle ratio) ([1]; 1 h after injection, unblocked): 67.23 ± 25.93
- adrenal uptake ([1]; 1 h after injection, unblocked): 7.72 ± 2.70 %ID/g
- blood uptake ([1]; 1 h after injection, unblocked): 0.56 ± 0.11 %ID/g
- bone uptake ([1]; 1 h after injection, unblocked): 0.25 ± 0.10 %ID/g
- brain uptake ([1]; 1 h after injection, unblocked): 0.02 ± 0.00 %ID/g
- fat uptake ([1]; 1 h after injection, unblocked): 0.80 ± 0.28 %ID/g
- heart uptake ([1]; 1 h after injection, unblocked): 0.28 ± 0.07 %ID/g
- intestine uptake ([1]; 1 h after injection, unblocked): 0.32 ± 0.06 %ID/g
- kidney uptake ([1]; 1 h after injection, unblocked): 143.85 ± 61.73 %ID/g
- liver uptake ([1]; 1 h after injection, unblocked): 0.20 ± 0.05 %ID/g
- lung uptake ([1]; 1 h after injection, unblocked): 1.97 ± 0.34 %ID/g
- muscle uptake ([1]; 1 h after injection, unblocked): 0.27 ± 0.06 %ID/g
- pancreas uptake ([1]; 1 h after injection, unblocked): 0.46 ± 0.15 %ID/g
- spleen uptake ([1]; 1 h after injection, unblocked): 6.47 ± 2.17 %ID/g
- stomach uptake ([1]; 1 h after injection, unblocked): 0.11 ± 0.03 %ID/g
- testes uptake ([1]; 1 h after injection, unblocked): 0.57 ± 0.12 %ID/g
- tumor uptake compared with ^18F-DCFPyL [1, 5]: higher uptake
- T/B (tumor-to-blood ratio) [1, 6]: 0.92 ± 0.24
- T/K (tumor-to-kidney ratio) [1, 6]: 0.17 ± 0.04
- T/M (tumor-to-muscle ratio) [1, 6]: 3.07 ± 0.92
- adrenal uptake [1, 6]: 0.14 ± 0.03 %ID/g
- blood uptake [1, 6]: 0.39 ± 0.07 %ID/g
- bone uptake [1, 6]: 0.15 ± 0.02 %ID/g
- brain uptake [1, 6]: 0.01 ± 0.00 %ID/g
- fat uptake [1, 6]: 0.06 ± 0.02 %ID/g
- heart uptake [1, 6]: 0.13 ± 0.01 %ID/g
- intestine uptake [1, 6]: 0.26 ± 0.05 %ID/g
- kidney uptake [1, 6]: 2.19 ± 0.44 %ID/g
- liver uptake [1, 6]: 0.16 ± 0.04 %ID/g
- lung uptake [1, 6]: 0.33 ± 0.06 %ID/g
- muscle uptake [1, 6]: 0.13 ± 0.06 %ID/g
- pancreas uptake [1, 6]: 0.09 ± 0.03 %ID/g
- spleen uptake [1, 6]: 0.12 ± 0.04 %ID/g
- stomach uptake [1, 6]: 0.09 ± 0.04 %ID/g
- testes uptake [1, 6]: 0.18 ± 0.09 %ID/g
- tumor uptake ([1]; 1 h after injection, unblocked, listed as 8): 16.7 ± 2.7 %ID/g
- tumor uptake ([1]; 1 h after injection, unblocked, listed as [18F]8): 16.66 ± 2.74 %ID/g
- tumor uptake [1, 6]: 0.35 ± 0.03 %ID/g
- accumulation in the liver ([4]; PET/CT): no significant accumulation in the liver
- clearance / excretion pathway ([4]; imaging and biodistribution): no hepatobiliary excretion
- LogD7.4 [2]: −3.58 ± 0.36
- Ki ([3]; LNCaP cells, 0.1 nM ^18F-DCFPyL radioligand, 1 h at 37°C, n = 3): 0.22 ± 0.01 nM

— publication PMC6681697, “One-Step ^18F-Labeling and Preclinical Evaluation of Prostate-Specific Membrane Antigen Trifluoroborate Probes for Cancer Imaging” (Journal of Nuclear Medicine, 2019)
